{"source": "paper PMC11501026", "about": "“L-Arginine and asymmetric dimethylarginine (ADMA) transport across the mouse blood-brain and blood-CSF barriers: Evidence of saturable transport at both interfaces and CNS to blood efflux” (PLOS ONE, 2024)", "key": {"[1]": {"test": "capillary depletion analysis after in situ brain perfusion", "assay_type": "in vivo, mouse", "conditions": "male, BALB/c, mouse, 5ml/min; for Kp at 10 min, 62.5 nM / Kp at 30 min, 62.5 nM: other: in situ brain perfusion, Balb/c ♂; for Kp at 10 min, 62.5 nM: CONTROL; for Kp at […]: 2.5 mins", "description": "The microvasculature within a sample of brain tissue can be separated from the brain parenchyma using capillary depletion analysis. Following perfusion, the remaining brain tissue after microdissection of the regions described above (typically 200–300 mg) underwent capillary depletion following a method modified for mouse. […]"}, "[2]": {"test": "self-inhibition, in situ perfusion: [^3H]-ADMA with 100 μM unlabelled ADMA", "assay_type": "in vivo, mouse", "conditions": "male, BALB/c, mouse, other: in situ brain perfusion, with unlabelled ADMA 100 µM, 10 mins, Balb/c ♂, 5ml/min", "description": "(§1) Self-inhibition experiments were also performed. […] Cross-competition experiments were also performed.\n(§2) The percentage change in the RTissue uptake values achieved in the absence or presence of an unlabelled inhibitor can be calculated by means of Eq 4.\n(§3) %change=RTissue−RInhibition/RTissue×100 Eq 4\n(§4) We define RInhibition as the RTissue uptake in the presence of an inhibitor in the artificial plasma.\n(§5) A decrease in the uptake of radiolabelled solute in the presence of unlabelled inhibitor is indicative of a saturable influx transport system. Conversely, an increase in the uptake of radiolabelled solute in the presence of unlabelled inhibitor is indicative of a saturable efflux transport system."}, "[3]": {"system": "[^3H]-ADMA transport across the blood-brain and blood-CSF barriers", "test": "self-inhibition, in situ perfusion: [^3H]-ADMA with 100 μM unlabelled ADMA", "assay_type": "in vivo, mouse", "conditions": "100 μM unlabelled ADMA; CSF; 10 minutes; not statistically significant, n of 2", "description": "as §1, §2, §3, §4, §5"}, "[4]": {"system": "[^3H]-arginine transport across the blood-brain and blood-CSF barriers", "test": "cross-inhibition, in situ perfusion: [^3H]-arginine with 0.5–500 μM unlabelled ADMA", "assay_type": "in vivo, mouse", "description": "as §1, §2, §3, §4, §5\nConcentrations of ADMA were specifically selected to mimic plasma concentrations under normal conditions (0.5 μM), pathophysiological conditions (3.0 μM), and then supraphysiological concentrations (10, 100 and 500 μM)."}, "[5]": {"conditions": "pH 7.4", "method": "The lipophilicity of the radiolabelled test molecules was also measured by means of an octanol:saline partition coefficient. […] Centrifugation separated the hydrophobic (octanol) phase and hydrophilic (saline) phase and 100 μL samples in triplicate were taken for radioactive liquid scintillation counting on a Tricarb 2900TR liquid scintillation counter (Perkin-Elmer; Boston, MA, USA). The partition coefficient was calculated as the ratio of radioactivity in the octanol phase to the radioactivity in the aqueous phase."}, "[6]": {"system": "CAT1", "conditions": "HEK293 overexpressing CAT1; read-out: IC50, inhibition of CAT1-mediated transport of L-arginine; cited from earlier work"}, "[7]": {"molecular_target": "eNOS", "conditions": "read-out: inhibition constant (Ki); cited from earlier work"}, "[8]": {"system": "human dermal microvascular endothelial cells", "conditions": "cited from earlier work"}, "[9]": {"conditions": "whole-brain homogenate (capillary depletion), Difference (ADMA minus Sucrose), homogenate, mean"}, "[10]": {"conditions": "whole-brain homogenate (capillary depletion), [3H] ADMA and [14C] Sucrose uptake, homogenate, mean"}}, "note": "Where a name gives a salt, the structure may show the parent alone. Read-outs that look alike come from different tables or passages of the source."}
{"smiles": "CN(C)C(N)=NCCC[C@H](N)C(=O)O", "note": "[ADMA, N^G,N^G-dimethylarginine dihydrochloride]", "values": [{"measurement": "Kp at 10 min, 62.5 nM", "setting": "[1]; endothelial cell-enriched pellet (capillary depletion), Difference (ADMA minus Sucrose), pellet, mean", "value": 0.00783}, {"measurement": "Kp at 30 min, 62.5 nM", "setting": "[1]; endothelial cell-enriched pellet (capillary depletion), [3H] ADMA + [14C] Sucrose, individual mice, read-out: uptake, pellet", "value": 0.0184}, {"measurement": "Kp at 30 min, 62.5 nM", "setting": "[1]; endothelial cell-enriched pellet (capillary depletion), [3H] ADMA + [14C] Sucrose, mean, read-out: uptake, pellet", "value": 0.0166}, {"measurement": "Kp at 10 min, 62.5 nM", "setting": "[1]; endothelial cell-enriched pellet (capillary depletion), [3H] ADMA and [14C] Sucrose uptake, pellet, mean", "value": 0.0527}, {"measurement": "Kp at […]", "setting": "[1]; [9]", "value": 0.0793}, {"measurement": "Kp at 20 min, 62.5 nM", "setting": "[1]; [9]", "value": 0.208}, {"measurement": "Kp at […]", "setting": "[1]; [10]", "value": 0.0942}, {"measurement": "Kp at 20 min, 62.5 nM", "setting": "[1]; [10]", "value": 0.234}, {"measurement": "Kp at 30 min, 62.5 nM", "setting": "[1]; [9]", "value": 0.122}, {"measurement": "Kp at 10 min, 62.5 nM", "setting": "[1]; whole-brain homogenate (capillary depletion), Difference (ADMA minus Sucrose), homogenate, individual mouse", "value": 0.136}, {"measurement": "Kp at 10 min, 62.5 nM", "setting": "[1]; [9]", "value": 0.127}, {"measurement": "Kp at 30 min, 62.5 nM", "setting": "[1]; whole-brain homogenate (capillary depletion), [3H] ADMA + [14C] Sucrose, mean, read-out: uptake, homogenate", "value": 0.156}, {"measurement": "Kp at 10 min, 62.5 nM", "setting": "[1]; [10]", "value": 0.224}, {"measurement": "Kp at 10 min, 62.5 nM", "setting": "[2]; caudate nucleus, Difference (ADMA minus Sucrose), caudate nucleus, + 100uM un-labelled ADMA, mean", "value": 0.0707}, {"measurement": "Kp at 10 min, 62.5 nM", "setting": "[2]; caudate nucleus, [3H] ADMA + [14C] Sucrose + 100uM un-labelled ADMA, mean, read-out: uptake into caudate nucleus", "value": 0.102}, {"measurement": "Kp at 10 min, 62.5 nM", "setting": "[2]; choroid plexus, Difference (ADMA minus Sucrose), choroid plexus, + 100uM un-labelled ADMA, individual mice", "value": 0.47}, {"measurement": "Kp at 10 min, 62.5 nM", "setting": "[2]; choroid plexus, Difference (ADMA minus Sucrose), choroid plexus, + 100uM un-labelled ADMA, mean", "value": 0.458}, {"measurement": "Kp at 10 min, 62.5 nM", "setting": "[2]; choroid plexus, [3H] ADMA + [14C] Sucrose + 100uM un-labelled ADMA, individual mice, read-out: uptake into choroid plexus", "value": 0.617}, {"measurement": "Kp at 10 min, 62.5 nM", "setting": "[2]; choroid plexus, [3H] ADMA + [14C] Sucrose + 100uM un-labelled ADMA, mean, read-out: uptake into choroid plexus", "value": 0.627}, {"measurement": "Kp at 10 min, 62.5 nM", "setting": "[2]; frontal cortex, Difference (ADMA minus Sucrose), frontal cortex, + 100uM un-labelled ADMA, mean", "value": 0.0696}, {"measurement": "Kp at 10 min, 62.5 nM", "setting": "[2]; frontal cortex, [3H] ADMA + [14C] Sucrose + 100uM un-labelled ADMA, mean, read-out: uptake into frontal cortex", "value": 0.101}, {"measurement": "Kp at 10 min, 62.5 nM", "setting": "[2]; hippocampus, Difference (ADMA minus Sucrose), hippocampus, + 100uM un-labelled ADMA, mean", "value": 0.056}, {"measurement": "Kp at 10 min, 62.5 nM", "setting": "[2]; hippocampus, [3H] ADMA + [14C] Sucrose + 100uM un-labelled ADMA, mean, read-out: uptake into hippocampus", "value": 0.0817}, {"measurement": "Kp at 10 min, 62.5 nM", "setting": "[2]; occipital cortex, Difference (ADMA minus Sucrose), occipital cortex, + 100uM un-labelled ADMA, individual mice", "value": 0.0613}, {"measurement": "Kp at 10 min, 62.5 nM", "setting": "[2]; occipital cortex, Difference (ADMA minus Sucrose), occipital cortex, + 100uM un-labelled ADMA, mean", "value": 0.0767}, {"measurement": "Kp at 10 min, 62.5 nM", "setting": "[2]; occipital cortex, [3H] ADMA + [14C] Sucrose + 100uM un-labelled ADMA, individual mice, read-out: uptake into occipital cortex", "value": 0.0898}, {"measurement": "Kp at 10 min, 62.5 nM", "setting": "[2]; occipital cortex, [3H] ADMA + [14C] Sucrose + 100uM un-labelled ADMA, mean, read-out: uptake into occipital cortex", "value": 0.107}, {"measurement": "Kp at 10 min, 62.5 nM", "setting": "[2]; pineal gland, Difference (ADMA minus Sucrose), pineal gland, + 100uM un-labelled ADMA, mean", "value": 3.33}, {"measurement": "Kp at 10 min, 62.5 nM", "setting": "[2]; pineal gland, [3H] ADMA + [14C] Sucrose + 100uM un-labelled ADMA, mean, read-out: uptake into pineal gland", "value": 3.5}, {"measurement": "reduction of [^3H]-ADMA uptake", "setting": "[3]", "value": 89.1, "unit": "%"}, {"measurement": "effect on [^3H]-arginine distribution", "setting": "[4]; 100 μM unlabelled ADMA, any of the samples analysed, 10 minutes", "value": "did not inhibit"}, {"measurement": "inhibition of [^3H]-arginine distribution", "setting": "[4]; 500 μM unlabelled ADMA, choroid plexus, 10 minutes", "value": 72.6, "unit": "%"}, {"measurement": "inhibition of [^3H]-arginine uptake", "setting": "[4]; 500 μM unlabelled ADMA, each of the brain regions, 10 minutes", "value": "approximately 70%"}, {"measurement": "inhibition of [^3H]-arginine distribution", "setting": "[4]; 500 μM unlabelled ADMA, supernatant (brain parenchyma), 10 minutes", "value": 72.0, "unit": "%"}, {"measurement": "inhibition of [^3H]-arginine distribution", "setting": "[4]; 500 μM unlabelled ADMA, whole brain homogenate, 10 minutes", "value": 65.1, "unit": "%"}, {"measurement": "effect on transport of [^3H]-arginine ([…]) across the blood-CNS barriers", "setting": "[4]; 0.5–100 μM unlabelled ADMA", "value": "insensitive to inhibition"}, {"measurement": "effect on [^3H]-arginine distribution", "setting": "[4]; any concentration of unlabelled ADMA (0.5–500 μM), CSF, pineal gland and pituitary gland, 10 minutes", "value": "not affected"}, {"measurement": "effect on [^3H]-arginine distribution", "setting": "[4]; up to 500 μM unlabelled ADMA, cerebral capillary endothelial cells (pellet), 10 minutes", "value": "not affected"}, {"measurement": "octanol-saline partition coefficient", "setting": "[5]", "value": "0.00226±0.00006"}, {"measurement": "IC50", "setting": "[6]", "value": 758, "unit": "µM"}, {"measurement": "Ki", "setting": "[7]", "value": 0.9, "unit": "µM"}, {"measurement": "effect on [^3H]-arginine transport", "setting": "[8]; 100 μM unlabelled ADMA", "value": "significant inhibitory effect"}, {"measurement": "effect on [^3H]-arginine transport", "setting": "[8]; 2.5–10 μM ADMA", "value": "did not affect"}]}
